The values below are quoted from earlier work in patent US7183112B2, “Uses for anti-malarial therapeutic agents” (APT Pharmaceuticals, LLC, priority 1999, dated 2007).

Counter-ions that a name gives are not always drawn. Like-named read-outs stand apart in the source and are kept apart here.

The conditions of data set [1]: cited from earlier work.
A further data set has as its system allergic asthma. The conditions noted are these: Fahy et al. 1999, cited from earlier work.

In the case of `CCN(CCO)CCCC(C)Nc1ccnc2cc(Cl)ccc12` (stereo not drawn) [hydroxychloroquine sulfate], the solubility in water entry in data set [1] was “readily soluble”.

With “Anti IgE(E25): Anti IgE(E25), given intravenously or by inhalation for allergic asthma (Fahy et al.)”, the “efficacy for treating allergic asthma” value in the data set with allergic asthma (inhalation) is “virtually ineffective”; in the data set on allergic asthma (intravenous administration), “effective”.
